According to patent US4015974A, “Amido phosphorothiolates” (priority 1972, dated 1977):

How the values were obtained:
Assay type in all cases: in vivo
[1] = system: barnyard grass (Echinochloa crus-galli); test: Pre-emergence application, herbicidal effect on barnyard grass (Table 1); design: key: 0: not damaged; 5: completely killed; conditions: 20 days after application, score 0-5
Summary of the method: (§1)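 Soil treatment after sowing, pre-emergence; wettable powder formulations diluted with water. Greenhouse, 20 d. Score 0 = no damage, 5 = complete kill.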

[2] = system: large crabgrass (Digitaria sanguinalis); test: Pre-emergence application, herbicidal effect on large crabgrass (Table 1); design: key: 0: not damaged; 5: completely killed; conditions: 20 days after application, score 0-5
Summary of the method: as §1

[3] = system: radish; test: Pre-emergence application, herbicidal effect on radish (Table 1); design: key: 0: not damaged; 5: completely killed; conditions: 20 days after application, score 0-5
Summary of the method: as §1

[4] = system: redroot pigweed (Amaranthus retroflexus); test: Pre-emergence application, herbicidal effect on redroot pigweed (Table 1); design: key: 0: not damaged; 5: completely killed; conditions: 20 days after application, score 0-5
Summary of the method: as §1

[5] = system: common purslane (Portulaca oleracea); test: Pre-emergence application, herbicidal effect on common purslane (Table 1); design: key: 0: not damaged; 5: completely killed; conditions: 20 days after application, score 0-5
Summary of the method: as §1

[6] = system: common lambsquarter (Chenopodium album); test: Pre-emergence application, herbicidal effect on common lambsquarter (Table 1); design: key: 0: not damaged; 5: completely killed; conditions: 20 days after application, score 0-5
Summary of the method: as §1

[7] = system: rice; test: Water application, phytotoxicity on rice (Table 2); design: key: 0: no effect; 1: very slightly affected; 2: slightly affected; 3: moderately affected; 4: considerably affected; 5: completely killed; conditions: 25 days, score 0-5
Summary of the method: (§2)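 Paddy-soil pots flooded to paddy conditions; rice transplanted at 3-leaf stage, barnyard grass sown, broad-leaved weeds germinating spontaneously. Test compounds applied as wettable powder to soil under flooded water. Herbicidal effect and rice phytotoxicity scored 0–5 at 25 days after application.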

[8] = system: barnyard grass (Echinochloa crus-galli); test: Water application, herbicidal effect on barnyard grass (Table 2); design: key: 0: not damaged; 5: completely killed; conditions: 25 days, score 0-5
Summary of the method: as §2

[9] = system: broad-leaved weeds, e.g., monochoria, false pimpernel and toothcup; test: Water application, herbicidal effect on broad-leaved weeds (Table 2); design: key: 0: not damaged; 5: completely killed; conditions: 25 days, score 0-5
Summary of the method: as §2

[10] = system: barnyard grass (Echinochloa crus-galli); test: Water application, herbicidal effect on barnyard grass (Table 2); design: key: 0: no effect; 1: very slightly affected; 2: slightly affected; 3: moderately affected; 4: considerably affected; 5: completely killed; conditions: 25 days, score 0-5
Excerpt: (§3) Wagner pots of 14 cm. in diameter, which had been packed with 1.5 kg. of paddy field soil, were brought into the state of paddy fields. To the pots were transplanted rice seedlings at the 3-leave stage. Further, seeds of barnyard grass (Echinochloa crus-galli) were sowed in the pots and required amounts of test compounds were applied to the soil under water lodged condition. 25 days after application, the degrees of herbicidal activity and phytotoxity were investigated on above-mentioned plants which had been transplanted and sowed, and on broad-leaved weeds, e.g., monochoria (Monochoria viaginalis Presl.), false pimpernel (Linderna pyxidaria) and toothcup (Rotala indica Koehue), which had been spontaneously germinated. The test compounds were used in the form of wettable powder. The herbicidal effects and the phytotoxity were evaluated as follows by the numerals ranging from 0 to 5.

[11] = system: broad-leaved weeds, e.g., monochoria, false pimpernel and toothcup; test: Water application, herbicidal effect on broad-leaved weeds (Table 2); design: key: 0: no effect; 1: very slightly affected; 2: slightly affected; 3: moderately affected; 4: considerably affected; 5: completely killed; conditions: 25 days, score 0-5
Excerpt: as §3

[12] = system: tobacco cut worm (Spondoptera litura); test: Lethal effect on tobacco cut worm (Table 5); conditions: tobacco cutworm, larvae on chinese cabbage leaves, 48 h
Experimental: The present compounds of an emulsifiable concentrate type were applied to leaves of chinese cabbage in the form of an 1000 fold dilute solution. After air-drying, third to fourth instar larvae of tobacco cut worm were released and after 48 hours the death and alive were observed.

SMILES	Herbicidal effect, barnyard grass ([1]; 10 g./a.)	Herbicidal effect, barnyard grass ([1]; 20 g./a.)	Herbicidal effect, barnyard grass ([1]; 40 g./a.)	Herbicidal effect, large crabgrass ([2]; 10 g./a.)	Herbicidal effect, large crabgrass ([2]; 20 g./a.)	Herbicidal effect, large crabgrass ([2]; 40 g./a.)	Herbicidal effect, radish ([3]; 10 g./a.)	Herbicidal effect, radish ([3]; 20 g./a.)	Herbicidal effect, radish ([3]; 40 g./a.)	Herbicidal effect, redroot pigweed ([4]; 10 g./a.)	Herbicidal effect, redroot pigweed ([4]; 20 g./a.)	Herbicidal effect, redroot pigweed ([4]; 40 g./a.)	Herbicidal effect, common purslane ([5]; 10 g./a.)	Herbicidal effect, common purslane ([5]; 20 g./a.)	Herbicidal effect, common purslane ([5]; 40 g./a.)	Herbicidal effect, common lambsquarter ([6]; 10 g./a.)	Herbicidal effect, common lambsquarter ([6]; 20 g./a.)	Herbicidal effect, common lambsquarter ([6]; 40 g./a.)	Phytotoxicity on rice ([7]; 20 g/a)	Phytotoxicity on rice ([7]; 40 g/a)	further results
C=CCSP(=O)(OCCC)SCC(=O)N1CCCCC1CC (stereo not shown) [Compound 91]	4	5	5	5	5	5	0	0	0	3	3	4	3	4	4	3	3	4	0	0	Phytotoxicity on rice ([7]; 10 g/a): 0; Herbicidal effects, barnyard grass ([8]; 20 g/a): 5; Herbicidal effects, barnyard grass ([8]; 40 g/a): 5; Herbicidal effects, broad-leaved weeds ([9]; 10 g/a): 5; Herbicidal effects, broad-leaved weeds ([9]; 20 g/a): 5; Herbicidal effects, broad-leaved weeds ([9]; 40 g/a): 5; Herbicidal effects, barnyard grass ([10]; 10 g/a): 4
COP(=S)(NC(C)C)Oc1ccc(Cl)cc1Cl (stereo not shown) [Zytron, reference compound]	–	3	4	–	1	3	–	0	0	–	0	1	–	1	2	–	0	2	0	0	Herbicidal effects, barnyard grass ([10]; 20 g/a): 1; Herbicidal effects, barnyard grass ([10]; 40 g/a): 3; Herbicidal effects, broad-leaved weeds ([11]; 20 g/a): 2; Herbicidal effects, broad-leaved weeds ([11]; 40 g/a): 3
CCOP(=O)(SCCCC(C)C)SCC(=O)N1CCCCC1CC (stereo not shown) [Compound 80]	4	5	5	5	5	5	0	0	0	3	4	5	3	4	5	3	4	5	0	2	Phytotoxicity on rice ([7]; 10 g/a): 0; Herbicidal effects, barnyard grass ([8]; 20 g/a): 5; Herbicidal effects, barnyard grass ([8]; 40 g/a): 5; Herbicidal effects, broad-leaved weeds ([9]; 10 g/a): 5; Herbicidal effects, broad-leaved weeds ([9]; 20 g/a): 5; Herbicidal effects, broad-leaved weeds ([9]; 40 g/a): 5; Herbicidal effects, barnyard grass ([10]; 10 g/a): 4
CCCSP(=O)(OCC)SCC(=O)N1CCCC(C)C1 (stereo not shown) [Compound 13]	5	5	5	5	5	5	0	0	0	4	5	5	4	5	5	4	5	5	0	0	Phytotoxicity on rice ([7]; 10 g/a): 0; Mortality [12]: 73.3%; Herbicidal effects, barnyard grass ([8]; 10 g/a): 5; Herbicidal effects, barnyard grass ([8]; 20 g/a): 5; Herbicidal effects, barnyard grass ([8]; 40 g/a): 5; Herbicidal effects, broad-leaved weeds ([9]; 10 g/a): 5; Herbicidal effects, broad-leaved weeds ([9]; 20 g/a): 5; Herbicidal effects, broad-leaved weeds ([9]; 40 g/a): 5
CCOP(=O)(SCCc1ccccc1)SCC(=O)N1CCCCC1C (stereo not shown) [Compound 63]	5	5	5	4	5	5	0	0	0	4	5	5	4	5	5	4	4	5	0	0	Phytotoxicity on rice ([7]; 10 g/a): 0; Herbicidal effects, barnyard grass ([8]; 20 g/a): 5; Herbicidal effects, barnyard grass ([8]; 40 g/a): 5; Herbicidal effects, broad-leaved weeds ([9]; 10 g/a): 5; Herbicidal effects, broad-leaved weeds ([9]; 20 g/a): 5; Herbicidal effects, broad-leaved weeds ([9]; 40 g/a): 5; Herbicidal effects, barnyard grass ([10]; 10 g/a): 4
Oc1c(Cl)c(Cl)c(Cl)c(Cl)c1Cl [PCP, reference compound]	–	–	–	–	–	–	–	–	–	–	–	–	–	–	–	–	–	–	–	–	Herbicidal effect, barnyard grass ([1]; 50 g./a.): 2; Herbicidal effect, barnyard grass ([1]; 100 g./a.): 3; Herbicidal effect, large crabgrass ([2]; 50 g./a.): 2; Herbicidal effect, large crabgrass ([2]; 100 g./a.): 4; Herbicidal effect, radish ([3]; 50 g./a.): 1; Herbicidal effect, radish ([3]; 100 g./a.): 4; Herbicidal effect, redroot pigweed ([4]; 50 g./a.): 2; Herbicidal effect, redroot pigweed ([4]; 100 g./a.): 4; Herbicidal effect, common purslane ([5]; 50 g./a.): 2; Herbicidal effect, common purslane ([5]; 100 g./a.): 4; Herbicidal effect, common lambsquarter ([6]; 50 g./a.): 2; Herbicidal effect, common lambsquarter ([6]; 100 g./a.): 4; Phytotoxicity on rice ([7]; 50 g/a): 2; Phytotoxicity on rice ([7]; 100 g/a): 3; Herbicidal effects, barnyard grass ([8]; 100 g/a): 5; Herbicidal effects, broad-leaved weeds ([9]; 50 g/a): 5; Herbicidal effects, broad-leaved weeds ([9]; 100 g/a): 5; Herbicidal effects, barnyard grass ([10]; 50 g/a): 4
CCOP(=O)(SCC(=O)N1CCCCC1C)SCC(C)c1ccccc1 (stereo not shown) [Compound 65]	5	5	5	5	5	5	0	0	0	4	4	5	4	4	5	4	4	5	0	0	Phytotoxicity on rice ([7]; 10 g/a): 0; Herbicidal effects, barnyard grass ([8]; 20 g/a): 5; Herbicidal effects, barnyard grass ([8]; 40 g/a): 5; Herbicidal effects, broad-leaved weeds ([9]; 10 g/a): 5; Herbicidal effects, broad-leaved weeds ([9]; 20 g/a): 5; Herbicidal effects, broad-leaved weeds ([9]; 40 g/a): 5; Herbicidal effects, barnyard grass ([10]; 10 g/a): 4
